Measurements: ChEMBL document CHEMBL3632474, “Synthesis, biological evaluation and structure-activity relationship studies of isoflavene based Mannich bases with potent anti-cancer activity” (Bioorg Med Chem Lett, 2015)

Columns and labels:
[1] = Antiproliferative effects against human SHEP cells after 72 hrs by Alamar blue assay
MRC5 = assay: Antiproliferative effects against human MRC5 cells after 72 hrs by Alamar blue assay; settings: MRC5, 72 h

Compound: CN(C)Cc1cc2c(cc1O)OC=C(c1ccc(O)cc1)C2
- IC50 [1]: 5.8 µM

Compound: Oc1ccc(C2=COc3cc(O)c(CNCc4ccccc4)cc3C2)cc1
- IC50 [1]: 5.7 µM
- IC50 (MRC5): 40.9 µM

Compound: CC(C)NCc1cc2c(cc1O)OC=C(c1ccc(O)cc1)C2
- IC50 [1]: 15.1 µM

Compound: CCCCCCCNCc1cc2c(cc1O)OC=C(c1ccc(O)cc1)C2
- IC50 [1]: 2.8 µM
- IC50 (MRC5): 16 µM

Compound: CCCCNCc1cc2c(cc1O)OC=C(c1ccc(O)cc1)C2
- IC50 [1]: 4 µM
- IC50 (MRC5): 33.8 µM

Compound: Oc1ccc(C2=COc3cc(O)c(CNCCc4ccccc4)cc3C2)cc1
- IC50 [1]: 1.8 µM
- IC50 (MRC5): 36.7 µM

Compound: OCCNCc1cc2c(cc1O)OC=C(c1ccc(O)cc1)C2
- IC50 [1]: 27.5 µM

Compound: CCCCOCCCNCc1cc2c(cc1O)OC=C(c1ccc(O)cc1)C2
- IC50 [1]: 5.1 µM

Compound: CCCCCCCN1COc2cc3c(cc2C1)C=C(c1ccc(O)cc1)CO3
- IC50 [1]: 1.4 µM
- IC50 (MRC5): 11.9 µM

Compound: CC(C)N1COc2cc3c(cc2C1)C=C(c1ccc(O)cc1)CO3
- IC50 [1]: 12.2 µM

Compound: CN1COc2cc3c(cc2C1)C=C(c1ccc(O)cc1)CO3
- IC50 [1]: 6.6 µM

Compound: CCCCN1COc2cc3c(cc2C1)C=C(c1ccc(O)cc1)CO3
- IC50 [1]: 3.9 µM
- IC50 (MRC5): 33.8 µM

Compound: C=CCN1COc2cc3c(cc2C1)C=C(c1ccc(O)cc1)CO3
- IC50 [1]: 9.1 µM

Compound: C1=C(c2ccc3c(c2)CN(Cc2ccccc2)CO3)COc2cc3c(cc21)CN(Cc1ccccc1)CO3
- IC50 [1]: 3.7 µM

Compound: Oc1ccc(C2=Cc3cc4c(cc3OC2)OCN(Cc2ccccc2)C4)cc1
- IC50 [1]: 5.7 µM

Compound: OCCN1COc2cc3c(cc2C1)C=C(c1ccc(O)cc1)CO3
- IC50 [1]: 24.6 µM

Compound: Oc1ccc(C2=Cc3cc4c(cc3OC2)OCN(CCc2ccccc2)C4)cc1
- IC50 [1]: 0.7 µM
- IC50 (MRC5): 197 µM

Compound: Oc1ccc(C2=Cc3cc(CN4CCCCC4)c(O)cc3OC2)cc1
- IC50 [1]: 19.9 µM

Compound: Oc1ccc(C2=Cc3cc(CN4CCCCC4)c(O)cc3OC2)cc1CN1CCCCC1
- IC50 [1]: 4.2 µM

Compound: CCN(CC)Cc1cc2c(cc1O)OCC(c1ccc(O)cc1)=C2
- IC50 [1]: 35.7 µM

Compound: CCN(CC)Cc1cc(C2=Cc3cc(CN(CC)CC)c(O)cc3OC2)ccc1O
- IC50 [1]: 3.4 µM
- IC50 (MRC5): 21.2 µM

Compound: Oc1ccc(C2=Cc3cc(CN4CCOCC4)c(O)cc3OC2)cc1
- IC50 [1]: 86.8 µM

Compound: Oc1ccc(C2=Cc3cc(CN4CCOCC4)c(O)cc3OC2)cc1CN1CCOCC1
- IC50 [1]: 171 µM

Compound: Oc1ccc(C2=Cc3cc(CN4CCOCC4)c(O)c(CN4CCOCC4)c3OC2)cc1CN1CCOCC1
- IC50 [1]: 69 µM

Compound: Oc1ccc(C2=COc3cc(O)ccc3C2)cc1 [ISOPHENOXODIOL]
- IC50 [1]: 8.4 µM
- IC50 (MRC5): 109 µM
